Source: ChEMBL document CHEMBL4507297, “Data for DCP probe PF-04457845” (2021)
Calls of active or inactive are those of the source.

Legend:
[1] = biological target: T1, Fatty-acid amide hydrolase 1 (Homo sapiens, UniProt O00519); experiment: Binding assay; design: compound concentration 10 uM
[2] = biological target: Delta-type opioid receptor (Homo sapiens) (UniProt P41143); experiment: delta2 (h) (DOP) CEREP ligand profiling; conditions: Compound concentration 10.0 uM
[3] = biological target: Sodium-dependent serotonin transporter (Homo sapiens) (UniProt P31645); experiment: 5-HT transporter (h) CEREP ligand profiling; conditions: Compound concentration 10.0 uM
[4] = biological target: D(1A) dopamine receptor (Homo sapiens) (UniProt P21728); experiment: D1 (h) CEREP ligand profiling; conditions: Compound concentration 10.0 uM
[5] = biological target: T2, 5-hydroxytryptamine receptor 2B (Homo sapiens, UniProt P41595); experiment: 5-HT2B (h) (agonist site) CEREP ligand profiling; conditions: Compound concentration 10.0 uM
[6] = biological target: Sodium/potassium-transporting ATPase (Homo sapiens) (UniProt P05023+P14415+P05026+P50993+P54709+P13637+Q13733+P54710); experiment: ATPase (Na+/K+) CEREP ligand profiling; format: protein-complex assay; conditions: Compound concentration 10.0 uM
[7] = biological target: D(3) dopamine receptor (Homo sapiens) (UniProt P35462); experiment: D3 (h) CEREP ligand profiling; conditions: Compound concentration 10.0 uM
[8] = biological target: Vascular endothelial growth factor receptor 1 (Homo sapiens) (UniProt P17948); experiment: FLT-1 (h) (VEGFR1) CEREP ligand profiling; conditions: Compound concentration 10.0 uM
[9] = GPCRScan assay: inhibition of GABA/PBR; design: species or system Rattus norvegicus; radioligand conc. used [nm] 0.3 – 2.0, parental cells brain tissue
[10] = biological target: Alpha-1A adrenergic receptor (Homo sapiens) (UniProt P35348); conditions: Compound concentration 10.0 uM
[11] = biological target: Kappa-type opioid receptor (Homo sapiens) (UniProt P41145); conditions: Compound concentration 10.0 uM
[12] = biological target: Phosphodiesterase 3 (Homo sapiens) (UniProt Q14432+Q13370); experiment: PDE 3 (h) CEREP ligand profiling; format: protein assay; conditions: Compound concentration 10.0 uM
[13] = biological target: Adenosine receptor A1 (Homo sapiens) (UniProt P30542); experiment: A1 (h) CEREP ligand profiling; conditions: Compound concentration 10.0 uM
[14] = biological target: Ca2+ channel (L, diltiazem site) (benzothiazepines); voltage-gated L-type calcium channel (Homo sapiens, UniProt O60840+Q01668+Q13698+Q13936); experiment: Ca2+ channel (L, diltiazem site) (benzothiazepines) CEREP ligand profiling; format: protein assay; conditions: compound concentration 10 uM
[15] = biological target: Na+ channel (site 2); sodium channel alpha subunit (Homo sapiens, UniProt P35498+P35499+Q01118+Q14524+Q15858+Q99250+Q9NY46+Q9UI33+Q9UQD0+Q9Y5Y9); experiment: Na+ channel (site 2) CEREP ligand profiling; format: protein assay; conditions: compound concentration 10 uM
[16] = biological target: Neuronal acetylcholine receptor; alpha4/beta2 (Homo sapiens) (UniProt P17787+P43681); experiment: N(neuronal) (α-BGTX-insensitive) (α4β2 nicotinic receptor) CEREP ligand profiling; conditions: Compound concentration 10.0 uM
[17] = biological target: Alpha-2B adrenergic receptor (Homo sapiens) (UniProt P18089); experiment: alpha2B (h) CEREP ligand profiling; conditions: Compound concentration 10.0 uM
[18] = biological target: Histamine H4 receptor (Homo sapiens) (UniProt Q9H3N8); conditions: Compound concentration 10.0 uM
[19] = biological target: GABA-A receptor; anion channel (Homo sapiens) (UniProt P14867+P47870+P18507+P28472+P48169+Q99928+Q9UN88+P34903+O00591+O14764+Q8N1C3+P18505+P78334+P47869+P31644+Q16445); experiment: GABAA CEREP ligand profiling; format: protein-complex assay; conditions: Compound concentration 10.0 uM
[20] = biological target: Sodium- and chloride-dependent GABA transporter 1 (Homo sapiens) (UniProt P30531); experiment: GABA transporter CEREP ligand profiling; conditions: Compound concentration 10.0 uM
[21] = biological target: 5-hydroxytryptamine receptor 1B (Homo sapiens) (UniProt P28222); experiment: 5-HT1B CEREP ligand profiling; conditions: Compound concentration 10.0 uM
[22] = biological target: T3, 5-hydroxytryptamine receptor 2A (Homo sapiens, UniProt P28223); experiment: GPCRScan assay: inhibition of 5-HT2A; design: radioligand conc. used [nm] 1.2 – 2.4, parental cells HEKT
[23] = biological target: Cannabinoid receptor 1 (Homo sapiens, UniProt P21554); experiment: CB1 (h) CEREP ligand profiling
[24] = biological target: T2, 5-hydroxytryptamine receptor 2B; experiment: GPCRScan assay: inhibition of 5-HT2B; design: radioligand conc. used [nm] 1.0 – 2.0, parental cells stable HEK
[25] = biological target: Voltage-dependent N-type calcium channel subunit alpha-1B (Homo sapiens) (UniProt Q00975); experiment: Ca2+ channel (N) CEREP ligand profiling; conditions: Compound concentration 10.0 uM
[26] = biological target: Beta-1 adrenergic receptor (Homo sapiens) (UniProt P08588); experiment: beta1 (h) CEREP ligand profiling; conditions: Compound concentration 10.0 uM
[27] = biological target: T3, 5-hydroxytryptamine receptor 2A; experiment: 5-HT2A (h) (agonist site) CEREP ligand profiling
[28] = biological target: Histamine H2 receptor (Homo sapiens) (UniProt P25021); experiment: H2 (h) CEREP ligand profiling; conditions: Compound concentration 10.0 uM
[29] = biological target: T1, Fatty-acid amide hydrolase 1; experiment: Glutamate dehydrogenase-coupled FAAH assay (preincubation time 60 min)
[30] = biological target: T4, Muscarinic acetylcholine receptor M1 (Homo sapiens) (UniProt P11229); experiment: M1 (h) CEREP ligand profiling; conditions: Compound concentration 10.0 uM
T4 sequence (whole entry): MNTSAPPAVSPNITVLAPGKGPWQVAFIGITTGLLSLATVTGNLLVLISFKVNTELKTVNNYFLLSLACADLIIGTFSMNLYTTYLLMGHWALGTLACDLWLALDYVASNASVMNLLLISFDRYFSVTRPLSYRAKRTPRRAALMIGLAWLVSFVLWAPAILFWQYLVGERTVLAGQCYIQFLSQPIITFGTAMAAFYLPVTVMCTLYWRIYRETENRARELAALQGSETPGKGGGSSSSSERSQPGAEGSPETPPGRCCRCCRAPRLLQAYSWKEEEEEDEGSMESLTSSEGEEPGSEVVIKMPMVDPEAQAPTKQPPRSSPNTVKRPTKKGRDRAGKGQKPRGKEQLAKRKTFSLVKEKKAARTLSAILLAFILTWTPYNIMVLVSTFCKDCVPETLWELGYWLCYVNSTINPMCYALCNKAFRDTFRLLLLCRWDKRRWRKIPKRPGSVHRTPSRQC

[31] = biological target: Ca2+ channel (L, verapamil site) (phenylalkylamines); voltage-gated L-type calcium channel (Homo sapiens, UniProt O60840+Q01668+Q13698+Q13936); experiment: Ca2+ channel (L, verapamil site) (phenylalkylamines) CEREP ligand profiling; format: protein assay; conditions: compound concentration 10 uM
[32] = biological target: Histamine H3 receptor (Homo sapiens) (UniProt Q9Y5N1); experiment: H3 (h) CEREP ligand profiling; conditions: Compound concentration 10.0 uM
[33] = biological target: Kappa-type opioid receptor (Homo sapiens) (UniProt P41145); experiment: kappa (KOP) CEREP ligand profiling; conditions: Compound concentration 10.0 uM
[34] = biological target: Alpha-1D adrenergic receptor (Homo sapiens) (UniProt P25100); conditions: Compound concentration 10.0 uM

T3 sequence (P28223 whole entry): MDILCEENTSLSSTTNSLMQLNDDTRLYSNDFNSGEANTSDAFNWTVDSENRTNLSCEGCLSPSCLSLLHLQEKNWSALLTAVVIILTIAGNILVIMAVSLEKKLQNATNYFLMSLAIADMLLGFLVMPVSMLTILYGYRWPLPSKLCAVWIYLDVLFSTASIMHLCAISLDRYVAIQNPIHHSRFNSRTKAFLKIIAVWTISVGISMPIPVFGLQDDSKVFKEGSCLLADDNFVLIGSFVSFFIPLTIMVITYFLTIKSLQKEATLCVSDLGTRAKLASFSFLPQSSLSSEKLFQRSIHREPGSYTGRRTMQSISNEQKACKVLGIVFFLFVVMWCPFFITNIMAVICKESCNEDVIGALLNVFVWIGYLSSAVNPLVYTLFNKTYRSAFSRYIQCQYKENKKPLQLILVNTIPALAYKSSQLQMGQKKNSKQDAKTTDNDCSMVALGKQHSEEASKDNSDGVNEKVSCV
T2 sequence (P41595 whole entry): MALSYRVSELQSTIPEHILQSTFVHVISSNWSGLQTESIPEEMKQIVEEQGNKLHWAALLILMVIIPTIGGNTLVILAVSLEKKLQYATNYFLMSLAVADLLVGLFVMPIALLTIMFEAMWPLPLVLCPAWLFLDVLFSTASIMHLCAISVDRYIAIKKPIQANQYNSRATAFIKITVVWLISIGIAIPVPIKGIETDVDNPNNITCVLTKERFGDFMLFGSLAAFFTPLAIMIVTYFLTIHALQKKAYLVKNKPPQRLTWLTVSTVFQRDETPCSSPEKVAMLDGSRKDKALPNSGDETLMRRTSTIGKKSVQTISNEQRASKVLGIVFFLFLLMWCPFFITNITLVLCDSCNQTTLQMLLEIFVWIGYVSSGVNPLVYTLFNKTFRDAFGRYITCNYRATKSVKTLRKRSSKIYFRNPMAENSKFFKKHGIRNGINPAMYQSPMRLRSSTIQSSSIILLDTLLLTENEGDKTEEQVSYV
T1 sequence (O00519 whole entry): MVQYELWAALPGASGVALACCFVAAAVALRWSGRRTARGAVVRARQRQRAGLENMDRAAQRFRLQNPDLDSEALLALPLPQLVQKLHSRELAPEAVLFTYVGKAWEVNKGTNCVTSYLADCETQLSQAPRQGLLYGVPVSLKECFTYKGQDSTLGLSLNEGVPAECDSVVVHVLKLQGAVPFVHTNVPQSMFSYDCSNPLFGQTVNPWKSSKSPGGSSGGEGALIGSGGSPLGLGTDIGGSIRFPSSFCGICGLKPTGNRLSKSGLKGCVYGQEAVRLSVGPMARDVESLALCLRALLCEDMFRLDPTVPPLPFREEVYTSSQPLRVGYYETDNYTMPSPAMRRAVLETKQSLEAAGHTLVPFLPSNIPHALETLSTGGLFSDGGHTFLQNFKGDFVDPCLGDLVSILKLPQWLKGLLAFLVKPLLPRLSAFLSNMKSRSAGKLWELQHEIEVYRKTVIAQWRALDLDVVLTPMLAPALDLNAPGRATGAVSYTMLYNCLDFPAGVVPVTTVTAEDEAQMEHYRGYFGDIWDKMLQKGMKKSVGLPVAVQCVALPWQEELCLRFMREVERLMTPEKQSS
Chain of Kappa-type opioid receptor (Homo sapiens) (P41145 whole entry): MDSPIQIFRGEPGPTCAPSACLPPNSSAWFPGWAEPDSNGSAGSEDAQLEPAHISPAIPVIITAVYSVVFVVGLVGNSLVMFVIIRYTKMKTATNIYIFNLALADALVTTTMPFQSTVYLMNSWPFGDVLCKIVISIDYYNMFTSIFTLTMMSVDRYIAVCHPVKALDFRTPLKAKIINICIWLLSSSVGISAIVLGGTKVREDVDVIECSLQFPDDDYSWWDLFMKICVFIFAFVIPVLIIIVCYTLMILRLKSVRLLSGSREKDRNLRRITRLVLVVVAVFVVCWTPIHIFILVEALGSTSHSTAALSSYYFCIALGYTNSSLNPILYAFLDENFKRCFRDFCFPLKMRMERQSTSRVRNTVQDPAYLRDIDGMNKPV
Chain of Cannabinoid receptor 1 (P21554 whole entry): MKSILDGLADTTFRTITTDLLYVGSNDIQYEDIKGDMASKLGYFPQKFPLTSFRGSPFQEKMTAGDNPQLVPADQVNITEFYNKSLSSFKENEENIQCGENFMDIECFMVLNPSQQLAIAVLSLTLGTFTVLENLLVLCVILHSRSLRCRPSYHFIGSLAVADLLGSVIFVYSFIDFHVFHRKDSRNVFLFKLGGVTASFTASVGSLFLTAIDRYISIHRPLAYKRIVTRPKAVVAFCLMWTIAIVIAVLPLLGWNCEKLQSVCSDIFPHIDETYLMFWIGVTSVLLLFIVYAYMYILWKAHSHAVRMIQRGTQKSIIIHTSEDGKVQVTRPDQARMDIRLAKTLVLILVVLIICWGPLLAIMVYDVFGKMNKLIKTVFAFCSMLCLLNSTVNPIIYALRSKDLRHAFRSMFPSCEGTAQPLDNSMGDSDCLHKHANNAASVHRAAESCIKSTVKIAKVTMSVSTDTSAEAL
Chain of Vascular endothelial growth factor receptor 1 (Homo sapiens) (P17948 whole entry): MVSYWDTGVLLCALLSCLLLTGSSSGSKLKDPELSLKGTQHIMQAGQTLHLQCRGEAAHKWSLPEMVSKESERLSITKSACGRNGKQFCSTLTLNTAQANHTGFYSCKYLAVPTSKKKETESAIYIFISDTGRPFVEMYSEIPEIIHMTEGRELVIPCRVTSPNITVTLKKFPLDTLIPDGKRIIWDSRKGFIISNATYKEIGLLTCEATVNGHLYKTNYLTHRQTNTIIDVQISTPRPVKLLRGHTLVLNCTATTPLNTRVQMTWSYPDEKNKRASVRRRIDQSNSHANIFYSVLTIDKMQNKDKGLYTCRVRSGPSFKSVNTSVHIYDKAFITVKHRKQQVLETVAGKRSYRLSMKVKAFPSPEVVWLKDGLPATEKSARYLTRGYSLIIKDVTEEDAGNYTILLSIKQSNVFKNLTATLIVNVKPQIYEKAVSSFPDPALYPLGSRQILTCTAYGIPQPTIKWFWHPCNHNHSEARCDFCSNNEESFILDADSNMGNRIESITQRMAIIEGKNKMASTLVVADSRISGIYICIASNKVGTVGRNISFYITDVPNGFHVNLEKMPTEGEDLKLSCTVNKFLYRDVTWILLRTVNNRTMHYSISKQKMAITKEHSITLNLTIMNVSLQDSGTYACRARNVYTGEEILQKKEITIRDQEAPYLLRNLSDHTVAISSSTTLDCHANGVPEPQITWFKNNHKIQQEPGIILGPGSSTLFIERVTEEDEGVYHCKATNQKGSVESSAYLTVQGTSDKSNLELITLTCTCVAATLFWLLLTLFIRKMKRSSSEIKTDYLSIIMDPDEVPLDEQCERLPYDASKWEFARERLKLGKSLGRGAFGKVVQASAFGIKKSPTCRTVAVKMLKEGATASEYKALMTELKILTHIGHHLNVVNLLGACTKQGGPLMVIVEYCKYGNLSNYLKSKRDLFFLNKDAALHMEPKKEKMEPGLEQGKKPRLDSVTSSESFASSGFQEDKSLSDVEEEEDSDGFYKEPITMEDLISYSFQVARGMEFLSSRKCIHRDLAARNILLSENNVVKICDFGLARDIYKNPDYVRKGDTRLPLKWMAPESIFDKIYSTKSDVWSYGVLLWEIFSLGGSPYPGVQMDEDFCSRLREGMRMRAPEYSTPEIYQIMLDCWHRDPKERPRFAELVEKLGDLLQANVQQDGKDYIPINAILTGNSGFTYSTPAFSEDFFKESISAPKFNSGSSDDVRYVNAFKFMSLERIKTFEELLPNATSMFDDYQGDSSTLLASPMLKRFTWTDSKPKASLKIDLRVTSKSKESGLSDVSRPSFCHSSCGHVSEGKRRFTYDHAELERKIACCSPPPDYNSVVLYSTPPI
Chain of Histamine H3 receptor (Homo sapiens) (Q9Y5N1 whole entry): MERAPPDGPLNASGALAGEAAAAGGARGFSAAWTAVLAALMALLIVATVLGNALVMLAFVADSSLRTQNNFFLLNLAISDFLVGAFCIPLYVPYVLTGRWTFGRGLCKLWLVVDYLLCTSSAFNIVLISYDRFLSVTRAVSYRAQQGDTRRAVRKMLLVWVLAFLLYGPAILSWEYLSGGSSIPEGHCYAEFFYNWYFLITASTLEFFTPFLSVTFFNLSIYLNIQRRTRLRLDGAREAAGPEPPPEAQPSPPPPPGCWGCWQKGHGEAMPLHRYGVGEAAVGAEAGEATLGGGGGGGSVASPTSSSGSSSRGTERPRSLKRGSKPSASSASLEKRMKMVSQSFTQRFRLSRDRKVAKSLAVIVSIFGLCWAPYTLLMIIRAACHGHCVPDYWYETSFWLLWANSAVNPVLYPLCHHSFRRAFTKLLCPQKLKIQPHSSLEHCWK
Chain of Histamine H4 receptor (Homo sapiens) (Q9H3N8 whole entry): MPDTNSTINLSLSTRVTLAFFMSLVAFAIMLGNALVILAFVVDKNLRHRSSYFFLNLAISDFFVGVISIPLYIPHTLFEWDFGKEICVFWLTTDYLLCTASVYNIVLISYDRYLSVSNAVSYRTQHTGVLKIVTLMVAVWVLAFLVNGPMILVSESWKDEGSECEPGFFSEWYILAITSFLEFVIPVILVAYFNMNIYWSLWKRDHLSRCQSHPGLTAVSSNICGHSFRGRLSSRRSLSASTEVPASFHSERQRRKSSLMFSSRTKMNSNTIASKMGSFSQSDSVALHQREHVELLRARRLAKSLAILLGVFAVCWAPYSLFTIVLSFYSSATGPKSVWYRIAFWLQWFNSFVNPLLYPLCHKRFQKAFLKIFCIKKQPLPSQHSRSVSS
Chain of Alpha-1A adrenergic receptor (Homo sapiens) (P35348 whole entry): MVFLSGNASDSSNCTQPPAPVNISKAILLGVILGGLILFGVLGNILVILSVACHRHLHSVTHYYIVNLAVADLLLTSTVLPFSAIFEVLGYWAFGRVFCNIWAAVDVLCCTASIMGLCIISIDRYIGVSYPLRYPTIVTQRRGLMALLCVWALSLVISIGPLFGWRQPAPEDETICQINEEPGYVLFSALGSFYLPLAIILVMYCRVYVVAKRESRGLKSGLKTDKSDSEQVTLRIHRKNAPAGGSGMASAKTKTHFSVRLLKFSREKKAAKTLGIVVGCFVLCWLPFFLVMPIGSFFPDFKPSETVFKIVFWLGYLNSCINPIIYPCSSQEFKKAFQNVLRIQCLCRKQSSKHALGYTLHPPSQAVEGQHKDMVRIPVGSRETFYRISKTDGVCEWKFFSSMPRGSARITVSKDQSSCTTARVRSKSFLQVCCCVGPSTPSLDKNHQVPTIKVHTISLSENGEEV

O=C(Nc1cccnn1)N1CC(C/C=C/c2cncc(Oc3ccc(C(F)(F)F)cn3)n2)C1
> 100000 nM (not active): IC50 [1]

O=C(Nc1cccnn1)N1CCC(=Cc2cccc(Oc3ccc(C(F)(F)F)cn3)c2)CC1
1600 nM: Ki [27]
1% (not active): inhibition at 10 µM [14]
-5% (not active): inhibition at 10 µM [31]
inactive: inhibition [2] 2% | inhibition [3] 11% | inhibition [4] 3% | inhibition [5] 35% | inhibition [6] -2% | inhibition [7] 3% | inhibition [8] 4% | inhibition [10] 10.3% | inhibition [11] 30.5% | inhibition [12] 10% | inhibition [13] 3% | inhibition [16] 8% | inhibition [17] 4% | inhibition [18] 17.3% | inhibition [19] -4% | inhibition [20] -1% | inhibition [21] -3% | inhibition ([23]; Compound concentration 10.0 uM) 55% | inhibition [25] -5% | inhibition [26] 1% | inhibition ([27]; Compound concentration 10.0 uM) 57% | inhibition [28] -6% | inhibition [30] 36% | inhibition [32] 10% | inhibition [33] 0% | inhibition [34] 3.84%
active: IC50 [29] 7.4 nM
5.94: pKi [9]
1340 nM: Ki [24]
13% (not active): inhibition at 10 µM [15]
1140 nM: Ki [9]
249 nM: Ki [22]
14000 nM: Ki [23]
